Assay results as given in patent US20050203065A1, “Method of treating ischemia reperfusion injury using adenosine receptor antagonists” (priority 2002, published 2005).

Tests used:
[1] = target: T1, human A2B adenosine receptors (Homo sapiens, UniProt P29275); test: FLIPR calcium functional assay, human A2b receptor in HEK-293 cells (5 μM NECA); format: cell-based; parameters: expressed in transfected cells; host or cells: HEK-293; details: HEK293 cells, null method
T1 sequence (P29275 1-332): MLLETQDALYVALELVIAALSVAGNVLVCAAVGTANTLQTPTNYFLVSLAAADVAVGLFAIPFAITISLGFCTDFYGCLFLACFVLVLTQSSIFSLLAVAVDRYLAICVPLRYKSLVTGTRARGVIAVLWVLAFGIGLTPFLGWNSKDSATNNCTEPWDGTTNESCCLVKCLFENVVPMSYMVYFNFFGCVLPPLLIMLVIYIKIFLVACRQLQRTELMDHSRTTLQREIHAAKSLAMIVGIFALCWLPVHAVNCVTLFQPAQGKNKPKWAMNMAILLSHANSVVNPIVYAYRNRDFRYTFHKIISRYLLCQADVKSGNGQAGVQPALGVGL
Protocol: Cells were seeded into 96-well tissue culture plates with black walls and clear bottoms, and cultured to an 80-0.90% confluent monolayer. Without removing the media, an equal volume of dye (from calcium assay kit purchased from Molecular Devices) was added. Cell plates were incubated for 1 hour at 37° C. and were then transferred to the-FLIPR unit (Molecular Devices).
For assay of recombinant human and rat A2b adenosine receptors, HEK-293 cells were incubated with increasing doses of agonist (5′N-ethylcarboxamidoadenosine, NECA) to determine the concentration of agonst that produced 50% of a maximum response.
The FLIPR integrates an argon laser excitation source, a 96-well pipettor, and a detection system utilizing a CCD (Charged Coupled Device) imaging camera. […] Fluorescence data were collected at 0.1-sec intervals before and after simultaneous rapid addition of compounds to the 96-well plate. Results were read as relative fluorescence units (RFU).
In FLIPR functional assays, agonist concentration-response curves were fitted to a logistic equation by use of the nonlinear regression program in Prizm GraphPad. […] A Schild analysis was performed to estimate the potency of the compounds as antagonists (pA2). […]

[2] = target: T2, recombinant canine A1 adenosine receptors (Canis lupus familiaris, UniProt P11616); test: Radioligand competition binding, canine A1 receptor (3H-CPX), transfected HEK 293 membranes
T2 construct: expressed in transfected cells
T2 sequence (P11616 1-326): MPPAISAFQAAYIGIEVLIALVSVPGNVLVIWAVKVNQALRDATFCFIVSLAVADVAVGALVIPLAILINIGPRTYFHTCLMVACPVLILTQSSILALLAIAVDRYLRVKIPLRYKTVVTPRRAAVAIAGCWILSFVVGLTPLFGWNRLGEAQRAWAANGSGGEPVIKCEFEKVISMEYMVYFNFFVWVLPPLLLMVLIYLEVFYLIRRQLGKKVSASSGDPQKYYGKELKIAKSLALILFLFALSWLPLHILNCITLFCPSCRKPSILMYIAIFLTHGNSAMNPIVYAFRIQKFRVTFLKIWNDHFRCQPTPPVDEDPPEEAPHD
Protocol: (§1) Membranes (40-70 μg membrane protein), radioligands, and varying concentrations of competing ligands were incubated in triplicate in 0.1 ml buffer HE plus 2 units/mL adenosine deaminase for 2.5 hours at 21° C. The radioligands used for competitive binding assays were: [^3H]-8-cyclopentyl-1,3-dipropyxanthine ([^3H]-DPCPX) (NEN, Boston, Mass.) for A1 and A2b adenosine receptors, [^3H]-4-(2-[7-amino-2-(furyl)(1,2,4)triazole(2,3-a)(1,3,5)triazin-5-ylaminoethyly)phenol ([^3H] ZM241385) for A2a adenosine receptors (Tocris, Bristol, UK), and [^125Iodine]-labeled N6-(4-aminobenzyl)-9-(5-(methylcarbonyl)-β-D-ribofuranosyl) adenine ([^125I]-AB-MECA) or [^3H]-R-N^6-phenylisopropyladenosine (H^3R]-R-PIA) for A3 adenosine receptors (both from NEN, Boston, Mass.). Nonspecific binding was measured in the presence of 10 μM 5′N ethylcarboxamidoadenosine (NECA, from RBI-Sigma, Natick, Mass.) for A1 and A2b receptors, or 10 μM xanthine amino congener (XAC, from RBI-Sigma, Natick, Mass.) for A2a receptors. Binding assays were terminated by filtration over Whatman GF/C glass fiber filters using a BRANDEL cell harvester (Gaithersburg, Md.).

[3] = target: T3, recombinant human A3 adenosine receptors (Homo sapiens, UniProt P0DMS8); test: Radioligand binding, human A3 receptor ([125I]-AB-MECA), incl. one-point binding at 10 μM; details: read-out: Percent (%) Inhibition at 10 μM Antagonist, A3
T3 construct: expressed in transfected cells; host or cells: HEK 293
T3 sequence (P0DMS8 1-318): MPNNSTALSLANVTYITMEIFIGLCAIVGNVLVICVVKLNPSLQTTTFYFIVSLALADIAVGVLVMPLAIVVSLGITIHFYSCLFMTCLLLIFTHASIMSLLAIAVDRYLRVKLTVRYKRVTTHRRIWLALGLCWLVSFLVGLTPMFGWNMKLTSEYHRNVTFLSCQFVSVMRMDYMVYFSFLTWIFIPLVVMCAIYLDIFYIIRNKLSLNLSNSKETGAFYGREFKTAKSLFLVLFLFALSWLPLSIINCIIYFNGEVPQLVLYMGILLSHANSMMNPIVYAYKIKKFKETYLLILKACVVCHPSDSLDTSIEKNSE

[4] = target: T4, recombinant canine A2a adenosine receptors (Canis lupus familiaris, UniProt P11617); test: Radioligand competition binding, canine A2a receptor (3H-ZM 241385), transfected HEK 293 membranes; details: canine; mean ± SEM, n = 3; 3H-ZM 241385; read-out: Ki, A2a
T4 construct: expressed in transfected cells
T4 sequence (P11617 whole entry): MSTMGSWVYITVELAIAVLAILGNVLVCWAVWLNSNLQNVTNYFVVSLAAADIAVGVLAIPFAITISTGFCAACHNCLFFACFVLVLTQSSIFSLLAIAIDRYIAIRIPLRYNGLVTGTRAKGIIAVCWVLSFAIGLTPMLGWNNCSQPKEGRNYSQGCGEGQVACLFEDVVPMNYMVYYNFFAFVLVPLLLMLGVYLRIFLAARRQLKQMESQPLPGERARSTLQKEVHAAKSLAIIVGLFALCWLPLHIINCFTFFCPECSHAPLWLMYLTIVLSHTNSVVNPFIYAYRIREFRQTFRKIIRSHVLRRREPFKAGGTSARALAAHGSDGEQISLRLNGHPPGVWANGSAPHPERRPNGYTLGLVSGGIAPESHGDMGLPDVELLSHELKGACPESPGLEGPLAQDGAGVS
Protocol: Membranes (40-70 μg membrane protein), radioligands, and varying concentrations of competing ligands were incubated in triplicate in 0.1 ml buffer HE plus 2 units/mL adenosine deaminase for 2.5 hours at 21° C. […] Nonspecific binding was measured in the presence of 10 μM 5′N ethylcarboxamidoadenosine (NECA, from RBI-Sigma, Natick, Mass.) for A1 and A2b receptors, or 10 μM xanthine amino congener (XAC, from RBI-Sigma, Natick, Mass.) for A2a receptors. Binding assays were terminated by filtration over Whatman GF/C glass fiber filters using a BRANDEL cell harvester (Gaithersburg, Md.).

[5] = test system: open-chest, barbital-anesthetized dogs; test: Protocol II (preconditioning): four 5-minute occlusion/reperfusion cycles before 60-minute occlusion and 3 hours reperfusion in dogs; format: in vivo, dog
Protocol: Preconditioning was elicited by four 5-minute occlusion/5-minute reperfusion cycles produced 10 minutes before the 60-minute occlusion.

[6] = target: T1, human A2B adenosine receptors; test: Radioligand competitive binding, human A2b receptor; parameters: expressed in transfected cells; host or cells: HEK-293; details: HEK 293 membranes
Protocol: Binding assays were terminated by filtration.
as §1

[7] = test system: open-chest, barbital-anesthetized dogs; test: Protocol I (pretreatment): 60 minutes of coronary artery occlusion and 3 hours of reperfusion in dogs
Protocol: The studies were performed in open-chest, barbital-anesthetized dogs instrumented to measure heart rate, blood pressure, left ventricular pressure, and regional myocardial blood flow (radioactive microspheres). A mechanical occluder was placed around a proximal portion of the left anterior descending coronary artery to produce ischemia and reperfusion. At the end of the experiments, infarct size was determined-by histochemical staining (patent blue dye and triphenyltetrazolium) and expressed as a percentage of the region at risk or as a percentage of the entire left ventricle.
In the pretreatment protocol (see FIG. 1, protocol I), the dogs were subjected to 60 minutes of coronary artery occlusion and 3 hours or reperfusion after which the hearts were removed and infarct size was assessed. […] All of the antagonists were administered at a dose of 1 mg/kg as an i.v. bolus followed by and infusion of 10 μg/kg/min continued until immediately before reperfusion (70 minutes total).

SMILES: CCCn1c(=O)c2[nH]c(C34CCC(CCC(=O)O)(CC3)CC4)nc2n(CCC)c1=O [BG 9928, 3-[4-(2,6-dioxo-1,3-dipropyl-2,3,6,7-tetrahydro-1H-purin-8-yl)-bicyclo[2.2.2]oct-1-yl]-propionic acid]
- Kb [1]: 3.36 nM
- Ki [2]: 28.9 ± 4.1 nM
- inhibition at 10 µM [3]: 30%
- Ki [4]: 4310 nM
- Addition to the protective effect of ischemic preconditioning ([5]; Protocol II): added to the protective effect
- Relationship between infarct size and collateral blood flow compared to preconditioned control ([5]; Protocol II (preconditioning)): shifted downward further
- Effect on the protective effects of ischemic preconditioning ([5]; Protocol II, 1 mg/kg i.v. bolus + 10 μg/kg/min): did not block
- Ki [6]: 88.5 ± 21 nM
- Relationship between infarct size and transmural collateral blood flow compared to control group [7]: shifted downward
- Infarct size (percentage of risk region or of left ventricle) compared with control, in words ([7]; 1 mg/kg i.v. bolus + 10 μg/kg/min from 10 minutes before occlusion, 1 mg/kg): significantly smaller
- Infarct size reduction ([7]; 1 mg/kg i.v. bolus + 10 μg/kg/min from 10 minutes before occlusion, vs control): 49%
